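96-well plates; 48 h exposure; 5 concentrations. Endpoints by linear interpolation between flanking doses. Not reached: highest tested concentration assigned. The concentration for 50% growth inhibition is given as GI50.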 Active and inactive are the calls of the source. No stated cut-off is given here; in the data, active = GI50 up to about 1.1 µM and inactive = higher.
Key:
Experiment in all cases: growth of human tumour cells (NCI), 48 h
[1] = test system: BT-549
[2] = test system: U-251
[3] = test system: SNB-19
[4] = test system: SN12C
[5] = test system: SK-MEL-28
[6] = test system: UO-31
[7] = test system: OVCAR-8
[8] = test system: TK-10
[9] = test system: A549
[10] = test system: NCI/ADR-RES
[11] = test system: HCT-116
[12] = test system: IGROV-1
[13] = test system: LOX IMVI
[14] = test system: NCI-H23
[15] = test system: A498
[16] = test system: SNB-75
[17] = test system: MDA-N
[18] = test system: CCRF-CEM
[19] = test system: HOP-62
[20] = test system: NCI-H522

Measured: GI50

COc1ccc(CC/N=C2\OCc3ccccc32)cc1OC
inactive: [1] > 100 µM | [2] > 100 µM | [3] > 100 µM | [4] 69.3 µM | [5] > 100 µM | [6] 69 µM | [7] 91.8 µM | [8] > 100 µM | [9] 46.3 µM | [10] 67 µM | [11] 24 µM | [12] 67 µM | [13] 41.2 µM | [14] 32.7 µM | [15] > 100 µM | [16] 68.2 µM | [17] 38.8 µM | [18] 29.1 µM

Fc1cccc(F)c1C1SCC2=Nc3ccccc3CN21 (centres undefined)
inactive: [1] 98.6 µM | [2] > 100 µM | [3] 44.1 µM | [4] > 100 µM | [5] > 100 µM | [6] 96.6 µM | [8] > 100 µM | [9] 63 µM | [10] 22.4 µM | [11] 26.5 µM | [19] 20.8 µM | [12] 42.5 µM | [13] > 100 µM | [14] 39.8 µM | [15] > 100 µM | [16] 18.7 µM | [17] > 100 µM | [18] > 100 µM

COC(=O)c1c(C)nc(C)c(N=O)c1-c1ccccc1C(F)(F)F
inactive: [1] 18.5 µM | [2] 17.5 µM | [20] 4.97 µM | [3] > 100 µM | [4] 21.3 µM | [5] 14.9 µM | [6] 14.4 µM | [7] 17.9 µM | [8] 13.8 µM | [9] > 100 µM | [10] 20.6 µM | [11] 16.4 µM | [19] > 100 µM | [12] 17.7 µM | [13] 14.7 µM | [14] 20.5 µM | [15] > 100 µM | [17] 19.7 µM | [18] 6 µM

OCC(O)C(Cl)CCl (centres undefined)
inactive: [1] > 100 µM | [2] > 100 µM | [20] > 100 µM | [3] > 100 µM | [4] > 100 µM | [5] > 100 µM | [6] > 100 µM | [7] > 100 µM | [8] > 100 µM | [9] > 100 µM | [10] > 100 µM | [11] > 100 µM | [19] > 100 µM | [12] > 100 µM | [14] > 100 µM | [15] > 10 µM | [16] > 100 µM | [17] > 100 µM | [18] > 100 µM

From ChEMBL document CHEMBL1201862, “PubChem BioAssay data set” (2004)
